According to patent publication US8937072B2, “Substituted cyanoaniline compounds, preparation and use thereof” (Sinochem Corporation, priority 2011, dated 2015):
Read-outs that look alike come from different tables or passages of the source.

Assays:
rice blast = assay: microbe, parasite or virus in culture; assay type: cell-based; settings: for inhibition at 25 µg/mL / inhibition at 0.03 µg/mL / inhibition at 0.1 µg/mL / inhibition at 0.3 µg/mL / inhibition at 0.9 µg/mL: Pyricularia oryzae; for inhibition at 0.03 µg/mL: read-out: the inhibition rate against rice blast (%) 0.03 mg/L; for inhibition at 0.1 µg/mL: read-out: the inhibition rate against rice blast (%) 0.1 mg/L; for the inhibition rate against rice blast (%) 0.03 mg/L: Table 21, 0.03 mg/L; for the inhibition rate against rice blast (%) 0.1 mg/L: Table 21, 0.1 mg/L; for the inhibition rate against rice blast (%) 0.3 mg/L: Table 21, 0.3 mg/L
cucumber gray mold = assay: Activity in vitro (96-well, High Through Put): inhibition rate against cucumber gray mold; assay type: cell-based; settings: for inhibition at 25 µg/mL: dose 25 mg/L
Outline: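 Compound in acetone, methanol or DMF was combined with pathogen suspension under sterile conditions and held in a constant-temperature box. After 24 hours germination or growth was scored by eye against an untreated control to give the inhibition rate.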

corn rust = assay: Protectant activity in vivo (whole plant) against corn rust; settings: for pest or weed control at 6.25 µg/mL / pest or weed control at 25 µg/mL / pest or weed control at 100 µg/mL / pest or weed control at 400 µg/mL: Zea mays, 168 h
Outline: (§1)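 Compound stock in organic solvent (≤5% v/v) diluted in water with 0.1% Tween-80 and sprayed onto whole host plants. Fungal inoculation 24 h later; humidity chamber then greenhouse as the pathogen requires. Activity rated visually, usually after 7 days.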

cucumber downy mildew = assay: Protectant activity in vivo (whole plant) against cucumber downy mildew
Outline: as §1

[1] = read-out: inhibition rate against rice blast
[2] = read-out: the inhibition rate against rice blast (%) 0.3 mg/L
[3] = 0.9 mg/L, read-out: the inhibition rate against cucumber gray mold (%)
[4] = 2.8 mg/L, read-out: the inhibition rate against cucumber gray mold (%)
[5] = 8.3 mg/L, read-out: the inhibition rate against cucumber gray mold (%)
[6] = 400 mg/L, read-out: the protectant activity (%) against corn rust
[7] = dose 400 mg/L, read-out: protectant activity against corn rust in vivo
[8] = Cucumis sativus, 168 h, 12.5 mg/L
[9] = Cucumis sativus, 168 h, 25 mg/L, read-out: the protectant activity (%) against cucumber downy mildew
[10] = Cucumis sativus, 168 h, 50 mg/L, read-out: the protectant activity (%) against cucumber downy mildew
[11] = Cucumis sativus, 168 h, 100 mg/L, read-out: the protectant activity (%) against cucumber downy mildew
[12] = in vitro, dose 2.8 mg/L, read-out: inhibition rate against cucumber gray mold
[13] = Cucumis sativus, 168 h, dose 25 mg/L, read-out: protectant activity against cucumber downy mildew in vivo
[14] = Cucumis sativus, 168 h, dose 50 mg/L, read-out: protectant activity against cucumber downy mildew in vivo

Row | Structure (SMILES) | inhibition at 0.03 µg/mL (rice blast) | inhibition at 0.1 µg/mL (rice blast) | inhibition at 0.3 µg/mL (rice blast; [2]) | inhibition at 0.3 µg/mL (cucumber gray mold; 0.3 mg/L) | inhibition at 0.9 µg/mL (cucumber gray mold; [3]) | inhibition at 2.8 µg/mL (cucumber gray mold; [4]) | inhibition at 8.3 µg/mL (cucumber gray mold; [5]) | pest or weed control at 25 µg/mL (cucumber downy mildew; [9]) | pest or weed control at 50 µg/mL (cucumber downy mildew; [10]) | pest or weed control at 100 µg/mL (cucumber downy mildew; [11]) | the inhibition rate against rice blast (%) 0.03 mg/L (rice blast) | the inhibition rate against rice blast (%) 0.1 mg/L (rice blast) | the inhibition rate against rice blast (%) 0.3 mg/L (rice blast) | the inhibition rate against cucumber gray mold (%) (cucumber gray mold; 0.3 mg/L) | the inhibition rate against cucumber gray mold (%) (cucumber gray mold; 0.9 mg/L) | the inhibition rate against cucumber gray mold (%) (cucumber gray mold; 2.8 mg/L) | the inhibition rate against cucumber gray mold (%) (cucumber gray mold; 8.3 mg/L) | the protectant activity (%) against corn rust (corn rust; 6.25 mg/L) | the protectant activity (%) against corn rust (corn rust; 25 mg/L) | protectant activity against corn rust in vivo (corn rust; dose 400 mg/L) | further results
1 | CN(C)c1ccc(Nc2c(Cl)c(F)c(C#N)c(F)c2C#N)cc1 [KC25] | 0% | 0% | 0% | 0% | 0% | 0% | 0% | 0% | 0% | 0% |  |  |  |  |  |  |  |  |  |  | inhibition at 25 µg/mL (rice blast; [1]): 0%; inhibition at 25 µg/mL (cucumber gray mold; in vitro): 0%; pest or weed control at 6.25 µg/mL (corn rust; 6.25 mg/L): 0%; pest or weed control at 25 µg/mL (corn rust; 25 mg/L): 0%; pest or weed control at 100 µg/mL (corn rust; 100 mg/L): 0%; pest or weed control at 400 µg/mL (corn rust; [6]): 0%; pest or weed control at 400 µg/mL (corn rust; [7]): 0%; pest or weed control at 12.5 µg/mL (cucumber downy mildew; [8]): 0%; pest or weed control at 400 µg/mL (cucumber downy mildew; Cucumis sativus, 168 h, dose 400 mg/L): 0%
2 | N#Cc1c(Cl)c(Cl)c(Nc2c(F)cc([N+](=O)[O-])cc2Cl)c(C#N)c1Cl [Compound B-53] |  |  |  |  |  |  |  |  |  |  | 100% | 100% | 100% | 0% | 100% | 100% | 100% | 30% | 50% |  | the protectant activity (%) against corn rust (corn rust; 100 mg/L): 80%; the protectant activity (%) against corn rust (corn rust; 400 mg/L): 100%; protectant activity against cucumber downy mildew in vivo (cucumber downy mildew; dose 50 mg/L): 98%; protectant activity against cucumber downy mildew in vivo (cucumber downy mildew; dose 100 mg/L): 100%; protectant activity against cucumber downy mildew in vivo (cucumber downy mildew; dose 400 mg/L): 100%
3 | N#Cc1c(F)c(F)c(Nc2ccc([N+](=O)[O-])cc2)c(C#N)c1F [KC11] | 0% | 0% | 0% | 0% | 0% | 0% | 50% | 0% | 0% | 0% |  |  |  |  |  |  |  |  |  |  | inhibition at 0.9 µg/mL (rice blast; [1]): 0%; inhibition at 2.8 µg/mL (cucumber gray mold; [12]): 0%; pest or weed control at 12.5 µg/mL (cucumber downy mildew; [8]): 0%; pest or weed control at 25 µg/mL (cucumber downy mildew; [13]): 0%; pest or weed control at 50 µg/mL (cucumber downy mildew; [14]): 0%
4 | COc1c(Cl)c(Nc2c(Cl)cc([N+](=O)[O-])cc2Cl)c(C#N)c(Cl)c1C#N [Compound B-74] |  |  |  |  |  |  |  |  |  |  | 0% | 50% | 100% |  | 80% | 100% | 100% | 40% | 70% | 100% | the protectant activity (%) against corn rust (corn rust; 100 mg/L): 95%; the protectant activity (%) against corn rust (corn rust; 400 mg/L): 100%; the protectant activity (%) against cucumber downy mildew (cucumber downy mildew; 25 mg/L): 80%; the protectant activity (%) against cucumber downy mildew (cucumber downy mildew; 50 mg/L): 98%; the protectant activity (%) against cucumber downy mildew (cucumber downy mildew; 100 mg/L): 100%; protectant activity against cucumber downy mildew in vivo (cucumber downy mildew; dose 50 mg/L): 98%; protectant activity against cucumber downy mildew in vivo (cucumber downy mildew; dose 100 mg/L): 100%; protectant activity against cucumber downy mildew in vivo (cucumber downy mildew; dose 400 mg/L): 100%
5 | COc1ccc(Nc2c(F)c(F)c(C#N)c(F)c2C#N)cc1 [KC10] | 0% | 0% | 0% | 0% | 0% | 0% | 80% | 0% | 10% | 20% |  |  |  |  |  |  |  |  |  |  | inhibition at 0.3 µg/mL (rice blast; [1]): 0%; inhibition at 0.9 µg/mL (rice blast; [1]): 50%; inhibition at 2.8 µg/mL (cucumber gray mold; [12]): 0%; pest or weed control at 12.5 µg/mL (cucumber downy mildew; [8]): 0%; pest or weed control at 25 µg/mL (cucumber downy mildew; [13]): 0%; pest or weed control at 50 µg/mL (cucumber downy mildew; [14]): 10%
6 | N#Cc1c(Cl)c(Cl)c(Nc2c(F)cc([N+](=O)[O-])cc2F)c(Cl)c1C#N [Compound A-43] |  |  |  |  |  |  |  |  |  |  | 100% | 100% | 100% | 100% | 100% | 100% | 100% |  |  | 100% | 
7 | Cc1cc([N+](=O)[O-])cc(Cl)c1Nc1c(Cl)c(Cl)c(C#N)c(Cl)c1C#N [Compound B-58] |  |  |  |  |  |  |  |  |  |  | 0% | 50% | 100% | 80% | 100% | 100% | 100% |  |  | 100% | inhibition rate against cucumber gray mold (cucumber gray mold; in vitro, dose 0.3 mg/L): 80%; the protectant activity (%) against cucumber downy mildew (cucumber downy mildew; 12.5 mg/L): 98%; the protectant activity (%) against cucumber downy mildew (cucumber downy mildew; 25 mg/L): 98%; the protectant activity (%) against cucumber downy mildew (cucumber downy mildew; 50 mg/L): 100%; the protectant activity (%) against cucumber downy mildew (cucumber downy mildew; 100 mg/L): 100%; protectant activity against cucumber downy mildew in vivo (cucumber downy mildew; dose 12.5 mg/L): 98%; protectant activity against cucumber downy mildew in vivo (cucumber downy mildew; dose 50 mg/L): 100%; protectant activity against cucumber downy mildew in vivo (cucumber downy mildew; dose 100 mg/L): 100%; protectant activity against cucumber downy mildew in vivo (cucumber downy mildew; dose 400 mg/L): 100%
8 | N#Cc1c(Cl)c(Cl)c(Nc2c(Cl)cc([N+](=O)[O-])cc2Cl)c(C#N)c1Cl [Compound B-54] |  |  |  |  |  |  |  |  |  |  | 0% | 0% | 100% | 100% | 100% | 100% | 100% | 65% | 80% | 100% | inhibition rate against rice blast (rice blast; in vitro, dose 0.3 mg/L): 80%; inhibition rate against cucumber gray mold (cucumber gray mold; in vitro, dose 0.3 mg/L): 80%; the protectant activity (%) against corn rust (corn rust; 100 mg/L): 90%; the protectant activity (%) against corn rust (corn rust; 400 mg/L): 100%; the protectant activity (%) against cucumber downy mildew (cucumber downy mildew; 25 mg/L): 75%; the protectant activity (%) against cucumber downy mildew (cucumber downy mildew; 50 mg/L): 100%; the protectant activity (%) against cucumber downy mildew (cucumber downy mildew; 100 mg/L): 100%; protectant activity against cucumber downy mildew in vivo (cucumber downy mildew; dose 50 mg/L): 100%; protectant activity against cucumber downy mildew in vivo (cucumber downy mildew; dose 100 mg/L): 100%; protectant activity against cucumber downy mildew in vivo (cucumber downy mildew; dose 400 mg/L): 100%
9 | N#Cc1c(Cl)c(Cl)c(Nc2c(Cl)cncc2Cl)c(Cl)c1C#N [Compound A-87] |  |  |  |  |  |  |  |  |  |  | 100% | 100% | 100% |  |  |  |  | 50% | 80% |  | inhibition rate against cucumber gray mold (cucumber gray mold; in vitro, dose 8.3 mg/L): 80%; the protectant activity (%) against corn rust (corn rust; 100 mg/L): 100%; the protectant activity (%) against corn rust (corn rust; 400 mg/L): 100%; protectant activity against corn rust in vivo (corn rust; dose 100 mg/L): 100%
10 | CCOc1ccccc1Nc1c(F)c(F)c(C#N)c(C#N)c1F [KC26] | 0% | 0% | 0% | 0% | 0% | 0% | 0% |  |  |  |  |  |  |  |  |  |  |  |  |  | inhibition at 25 µg/mL (rice blast; [1]): 0%; inhibition at 25 µg/mL (cucumber gray mold; in vitro): 0%; pest or weed control at 6.25 µg/mL (corn rust; 6.25 mg/L): 0%; pest or weed control at 25 µg/mL (corn rust; 25 mg/L): 0%; pest or weed control at 100 µg/mL (corn rust; 100 mg/L): 0%; pest or weed control at 400 µg/mL (corn rust; [6]): 0%; pest or weed control at 400 µg/mL (corn rust; [7]): 0%
11 | N#Cc1c(Cl)c(Cl)c(C#N)c(Nc2c(F)cc([N+](=O)[O-])cc2Cl)c1Cl [Compound C-46] |  |  |  |  |  |  |  |  |  |  | 100% | 100% | 100% | 100% | 100% | 100% | 100% |  |  | 80% | 
12 | N#Cc1c(Cl)c(Cl)c(Cl)c(C#N)c1Cl [chlorothalonil] | 0% | 30% | 100% | 80% | 100% | 100% | 100% | 30% | 80% | 100% |  |  |  |  |  |  |  |  |  |  | pest or weed control at 400 µg/mL (corn rust; [6]): 50%
